Test results as given in patent US6861432B2, “Piperazine derivatives that destabilize androgen receptors” (Schering Aktiengesellschaft, priority 2001, dated 2005).

target: T1, androgen receptor (Homo sapiens, UniProt P10275, T878A); assay: cell-based; settings: LNCaP cells, 10 μM test substance, 48 h; AR/actin as percentage of DMSO control
T1 construct: 2*10^6 LNCaP cells in 6 ml of RPMI 1640 without phenol red are grown; endogenous in cells; host or cells: LNCaP (human prostate cell line)
T1 sequence (P10275 1-920 T878A): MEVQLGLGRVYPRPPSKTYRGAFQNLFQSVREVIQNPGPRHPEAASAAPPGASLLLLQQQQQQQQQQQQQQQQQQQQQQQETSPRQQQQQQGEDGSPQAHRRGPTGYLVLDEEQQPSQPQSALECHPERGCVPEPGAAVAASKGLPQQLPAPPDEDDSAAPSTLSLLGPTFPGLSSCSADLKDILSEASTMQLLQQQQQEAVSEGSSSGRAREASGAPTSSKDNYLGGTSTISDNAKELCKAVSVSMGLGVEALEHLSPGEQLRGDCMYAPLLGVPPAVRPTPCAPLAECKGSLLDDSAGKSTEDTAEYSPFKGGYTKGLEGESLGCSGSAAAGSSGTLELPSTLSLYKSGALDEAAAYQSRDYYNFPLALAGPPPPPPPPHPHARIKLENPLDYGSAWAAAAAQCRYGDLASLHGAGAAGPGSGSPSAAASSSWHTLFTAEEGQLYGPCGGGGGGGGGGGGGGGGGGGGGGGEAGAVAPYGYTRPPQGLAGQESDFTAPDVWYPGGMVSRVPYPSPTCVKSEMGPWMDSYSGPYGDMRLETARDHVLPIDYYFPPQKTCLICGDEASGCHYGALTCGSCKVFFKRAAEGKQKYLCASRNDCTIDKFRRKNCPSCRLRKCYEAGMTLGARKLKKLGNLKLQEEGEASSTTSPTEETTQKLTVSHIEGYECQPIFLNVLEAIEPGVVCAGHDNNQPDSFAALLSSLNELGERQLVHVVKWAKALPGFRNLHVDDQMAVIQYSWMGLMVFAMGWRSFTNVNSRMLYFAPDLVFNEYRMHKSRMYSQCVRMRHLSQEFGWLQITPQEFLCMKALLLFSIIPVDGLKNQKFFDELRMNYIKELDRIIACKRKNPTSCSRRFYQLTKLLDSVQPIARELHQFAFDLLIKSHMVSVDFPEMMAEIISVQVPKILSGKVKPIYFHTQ

`CC1=C(CCCCCCN2CCN(S(=O)(=O)c3ccccc3)CC2)C(=O)N(c2ccc(C#N)c(C(F)(F)F)c2)C1=O` [Example 295, 4-[2,5-Dihydro-3-methyl-2,5-dioxo-4-[6-[4-(phenylsulfonyl)piperazin-1-yl]hexyl]-1H-pyrrol-1-yl]-2-(trifluoromethyl)benzonitrite] was tested. Which “AR Content [%] At 10 μM” value did it give?
Its value is 48%.

same assay, conditions: LNCaP cells, R-1881 at 10 nM; percentage of DMSO control

How did the “AR Content [%]” value turn out when `C[C@]1(O)CC[C@H]2[C@@H]3CCC4=CC(=O)CCC4=C3C=C[C@@]21C` [Example R-1881, 17β-hydroxy-17α-methylestra-4,9,11-trien-3-one, reference compound] was run?
Its value is 250%.

same assay, conditions: LNCaP cells, R-1881 at 10 nM; percentage of DMSO control; listed as R1881

With `C[C@]1(O)CC[C@H]2[C@@H]3CCC4=CC(=O)CCC4=C3C=C[C@@]21C` [Example R-1881, 17β-hydroxy-17α-methylestra-4,9,11-trien-3-one, reference compound] as the molecule, how does the “AR Content [%]” value read?
The value was “stabilizes the AR protein”.

same assay, conditions: LNCaP, 48 h, read-out: AR Content [%] At 1 μM

`CC1(C)C(=O)N(c2ccc(C#N)c(C(F)(F)F)c2)C(=S)N1CCCCCN1CCN(S(=O)(=O)c2ccc(C#N)cc2)CC1` [Example 632, 4-[3-[5-[4-[(4-Cyanophenyl)sulfonyl]piperazin-1-yl]pentyl]-4,4-dimethyl-5-oxo-2-thioxoimidazolidin-1-yl]-2-(trifluoromethyl)benzonitrile] was tested. Which remaining activity at 1 µM did it give?
Its remaining activity at 1 µM is 75%.

Which remaining activity at 1 µM does the source give for `CC(CN1C(=S)N(c2ccc(C#N)c(C(F)(F)F)c2)C(=O)C1(C)C)N1CCN(C(=O)c2cccs2)CC1` (stereo not drawn) [Example 524, 4-[4,4-Dimethyl-5-oxo-3-[2-[4-[(thien-2-yl)carbonyl]-piperazin-1-yl]propyl]-2-thioxoimidazolidin-1-yl]-2-(trifluoromethyl)benzonitrile] here?
Its remaining activity at 1 µM is 61%.

`CC1=C(CCCCCCN2CCN(C(=O)Nc3cc(Cl)nc(Cl)c3)CC2)C(=O)N(c2ccc(C#N)c(C(F)(F)F)c2)C1=O` [Example 365, 4-[6-[1-[4-Cyano-3-(trifluoromethyl)phenyl]-2,5-dihydro-4-methyl-2,5-dioxo-1H-pyrrol-3-yl]hexyl]-N-(2,6-dichloropyridin-4-yl)piperazine-1-carboxamide] was tested. Which remaining activity at 1 µM did it give?
The remaining activity at 1 µM was 82%.

same assay, conditions: LNCaP, 48 h, read-out: AR Content [%] At 10 μM

Which remaining activity at 10 µM does the source give for `CC1=C(CCCCCCN2CCN(C(=O)Nc3cc(Cl)nc(Cl)c3)CC2)C(=O)N(c2ccc(C#N)c(C(F)(F)F)c2)C1=O` [Example 365, 4-[6-[1-[4-Cyano-3-(trifluoromethyl)phenyl]-2,5-dihydro-4-methyl-2,5-dioxo-1H-pyrrol-3-yl]hexyl]-N-(2,6-dichloropyridin-4-yl)piperazine-1-carboxamide] here?
The remaining activity at 10 µM was 36%.

How did the remaining activity at 10 µM turn out when `CC1=C(CCCCN2CCN(C(=O)c3cccs3)CC2)C(=O)N(c2ccc(C#N)c(C(F)(F)F)c2)C1=O` [Example 99, 4-[2,5-Dihydro-3-methyl-2,5-dioxo-4-[4-[4-[(thien-2-yl)-carbonyl]piperazin-1-yl]butyl]-1H-pyrrol-1-yl]-2-(trifluoromethyl)benzonitrile] was run?
The remaining activity at 10 µM was 66%.

For `CC1=C(CCCCCCN2CCN(C(=O)Nc3c(F)cccc3F)CC2)C(=O)N(c2ccc(C#N)c(C(F)(F)F)c2)C1=O` [Example 350, 4-[6-[1-[4-Cyano-3-(trifluoromethyl)phenyl]-2,5-dihydro-4-methyl-2,5-dioxo-1H-pyrrol-3-yl]hexyl]-N-(2,6-difluorophenyl)piperazine-1-carboxamide], which remaining activity at 10 µM is on record?
Its remaining activity at 10 µM is 61%.

`CC1=C(CCCCCCN2CCN(C(=O)COc3ccc(Cl)cc3)CC2)C(=O)N(c2ccc(C#N)c(C(F)(F)F)c2)C1=O` [Example 264, 4-[3-[6-[4-[(4-Chlorophenoxy)acetyl]piperazin-1-yl]hexyl]-2,5-dihydro-4-methyl-2,5-dioxo-1H-pyrrol-1-yl]-2-(trifluoromethyl)benzonitrile] was tested. Which remaining activity at 10 µM did it give?
The remaining activity at 10 µM was 37%.

`CSc1ccc(NC(=O)N2CCN(CCCCCCC3=C(C)C(=O)N(c4ccc(C#N)c(C(F)(F)F)c4)C3=O)CC2)cc1` [Example 342, 4-[6-[1-[4-Cyano-3-(trifluoromethyl)phenyl]-2,5-dihydro-4-methyl-2,5-dioxo-1H-pyrrol-3-yl]hexyl]-N-[4-(methylsulfanyl)phenyl]piperazine-1-carboxamide] was tested. Which remaining activity at 10 µM did it give?
The remaining activity at 10 µM was 67%.

`CC1=C(CCCCCCN2CCN(S(=O)(=O)c3ccc(C#N)cc3)CC2)C(=O)N(c2ccc(C#N)c(C(F)(F)F)c2)C1=O` [Example 300, 4-[3-[6-[4-[(4-Cyanophenyl)sulfonyl]piperazin-1-yl]hexyl]-2,5-dihydro-4-methyl-2,5-dioxo-1H-pyrrol-1-yl]-2-(trifluoromethyl)benzonitrile] was tested. Which remaining activity at 10 µM did it give?
The remaining activity at 10 µM was 35%.

How did the remaining activity at 10 µM turn out when `CC1=C(CCCCN2CCN(C(=O)C3CCC3)CC2)C(=O)N(c2ccc(C#N)c(C(F)(F)F)c2)C1=O` [Example 93, 4-[3-[4-[4-(Cyclobutylcarbonyl)piperazin-1-yl]butyl]-2,5-dihydro-4-methyl-2,5-dioxo-1H-pyrrol-1-yl]-2-(trifluoromethyl)benzonitrile] was run?
Its remaining activity at 10 µM is 53%.

`CC1=C(CCCCCCN2CCN(C(=O)Nc3ccccc3C(F)(F)F)CC2)C(=O)N(c2ccc(C#N)c(C(F)(F)F)c2)C1=O` [Example 324, 4-[6-[1-[4-Cyano-3-(trifluoromethyl)phenyl]-2,5-dihydro-4-methyl-2,5-dioxo-1H-pyrrol-3-yl]hexyl]-N-[2-(trifluoromethyl)phenyl]piperazine-1-carboxamide] was tested. Which remaining activity at 10 µM did it give?
The remaining activity at 10 µM was 62%.

For `CC1=C(CCCCN2CCN(C(=O)c3ccc(N(C)C)cc3)CC2)C(=O)N(c2ccc(C#N)c(C(F)(F)F)c2)C1=O` [Example 96, 4-[3-[4-[4-[4-(Dimethylamino)benzoyl]piperazin-1-yl]butyl]-2,5-dihydro-4-methyl-2,5-dioxo-1H-pyrrol-1-yl]-2-(trifluoromethyl)benzonitrile], which remaining activity at 10 µM is on record?
Its remaining activity at 10 µM is 50%.

With `CC1=C(CCCCCCN2CCN(C(=O)Nc3ccc(F)cc3)CC2)C(=O)N(c2ccc(C#N)c(C(F)(F)F)c2)C1=O` [Example 330, 4-[6-[1-[4-Cyano-3-(trifluoromethyl)phenyl]-2,5-dihydro-4-methyl-2,5-dioxo-1H-pyrrol-3-yl]hexyl]-N-(4-fluorophenyl)-piperazine-1-carboxamide] as the molecule, how does the remaining activity at 10 µM read?
Its remaining activity at 10 µM is 46%.

How did the remaining activity at 10 µM turn out when `CC1=C(CCCCCCN2CCN(C(=O)CC(C)C)CC2)C(=O)N(c2ccc(C#N)c(C(F)(F)F)c2)C1=O` [Example 270, 4-[2,5-Dihydro-3-methyl-4-[6-[4-(3-methyl-1-oxobutyl)piperazin-1-yl]hexyl]-2,5-dioxo-1H-pyrrol-1-yl]-2-(trifluoromethyl)benzonitrile] was run?
Its remaining activity at 10 µM is 65%.

How did the remaining activity at 10 µM turn out when `COc1ccc(C(=O)N2CCN(CCCCCC3=C(C)C(=O)N(c4ccc(C#N)c(C(F)(F)F)c4)C3=O)CC2)cc1OC` [Example 158, 4-[3-[5-[4-(3,4-Dimethoxybenzoyl)piperazin-1-yl]pentyl]-2,5-dihydro-4-methyl-2,5-dioxo-1H-pyrrol-1-yl]-2-(trifluoromethyl)benzonitrile] was run?
Its remaining activity at 10 µM is 22%.

For `CC1=C(CCCCN2CCN(S(=O)(=O)c3ccc(C#N)cc3)CC2)C(=O)N(c2ccc(C#N)c(C(F)(F)F)c2)C1=O` [Example 121, 4-[3-[4-[4-[(4-Cyanophenyl)sulfonyl]piperazin-1-yl]butyl]-2,5-dihydro-4-methyl-2,5-dioxo-1H-pyrrol-1-yl]-2-(trifluoromethyl)benzonitrile], which remaining activity at 10 µM is on record?
The remaining activity at 10 µM was 53%.

`CSc1cccc(NC(=O)N2CCN(CCCCCCC3=C(C)C(=O)N(c4ccc(C#N)c(C(F)(F)F)c4)C3=O)CC2)c1` [Example 340, 4-[6-[1-[4-Cyano-3-(trifluoromethyl)phenyl]-2,5-dihydro-4-methyl-2,5-dioxo-1H-pyrrol-3-yl]hexyl]-N-[3-(methylsulfanyl)phenyl]piperazine-1-carboxamide] was tested. Which remaining activity at 10 µM did it give?
Its remaining activity at 10 µM is 41%.

How did the remaining activity at 10 µM turn out when `CC1=C(CCCCCCN2CCN(C(=O)NC(C)C)CC2)C(=O)N(c2ccc(C#N)c(C(F)(F)F)c2)C1=O` [Example 319, 4-[6-[1-[4-Cyano-3-(trifluoromethyl)phenyl]-2,5-dihydro-4-methyl-2,5-dioxo-1H-pyrrol-3-yl]hexyl]-N-(1-methylethyl)-piperazine-1-carboxamide] was run?
Its remaining activity at 10 µM is 74%.

With `CC1=C(CCCCCCN2CCN(S(C)(=O)=O)CC2)C(=O)N(c2ccc(C#N)c(C(F)(F)F)c2)C1=O` [Example 296, 4-[2,5-Dihydro-3-methyl-4-[6-[4-(methylsulfonyl)piperazin-1-yl]hexyl]-2,5-dioxo-1H-pyrrol-1-yl]-2-(trifluoromethyl)benzonitrile] as the molecule, how does the remaining activity at 10 µM read?
The remaining activity at 10 µM was 48%.

For `CC1=C(CCCCCCN2CCN(C(=O)c3ccc(C#N)cc3)CC2)C(=O)N(c2ccc(C#N)c(C(F)(F)F)c2)C1=O` [Example 268, 4-[3-[6-[4-(4-Cyanobenzoyl)piperazin-1-yl]hexyl]-2,5-dihydro-4-methyl-2,5-dioxo-1H-pyrrol-1-yl]-2-(trifluoromethyl)benzonitrile], which remaining activity at 10 µM is on record?
The remaining activity at 10 µM was 73%.

With `CC1=C(CCCCCN2CCN(S(=O)(=O)c3cccc4nsnc34)CC2)C(=O)N(c2ccc(C#N)c(C(F)(F)F)c2)C1=O` [Example 207, 4-[3-[5-[4-[(2,1,3-Benzothiadiazol-4-yl)sulfonyl]piperazin-1-yl]pentyl]-2,5-dihydro-4-methyl-2,5-dioxo-1H-pyrrol-1-yl]-2-(trifluoromethyl)benzonitrile] as the molecule, how does the remaining activity at 10 µM read?
Its remaining activity at 10 µM is 42%.
